Test results from BindingDB's records for patent US11013745 (Shanghai Institute of Material Medica, Chinese Academy of …, 2021).
pIC50: −log10 of the molar value.

Molecular target: T1, Histone-binding protein RBBP4/Histone-lysine N-methyltransferase EZH2/Polycomb protein EED [40-441]/Polycomb protein SUZ12 (Homo sapiens, UniProt O75530+Q09028+Q15022+Q15910)
T1 construct: 40-441
Assay: TR-FRET Assay
Protocol: The TR-FRET method was used to measure the PRC2 enzyme activity. First, the enzyme was mixed with compounds at different concentrations and incubated for 30 min at room temperature. The biotin-labeled histone H3 peptide substrate and the cofactor S-adenosylmethionine (SAM) were added to initiate the enzymatic reaction. After reaction was performed at room temperature for 4 hour, Acceptor and Donor were added and incubated for half an hour. The multifunctional microplate reader EnVision (Perkin Elmer Inc.) was used to detect the fluorescence signal.

T1 sequence (Q15910 whole entry): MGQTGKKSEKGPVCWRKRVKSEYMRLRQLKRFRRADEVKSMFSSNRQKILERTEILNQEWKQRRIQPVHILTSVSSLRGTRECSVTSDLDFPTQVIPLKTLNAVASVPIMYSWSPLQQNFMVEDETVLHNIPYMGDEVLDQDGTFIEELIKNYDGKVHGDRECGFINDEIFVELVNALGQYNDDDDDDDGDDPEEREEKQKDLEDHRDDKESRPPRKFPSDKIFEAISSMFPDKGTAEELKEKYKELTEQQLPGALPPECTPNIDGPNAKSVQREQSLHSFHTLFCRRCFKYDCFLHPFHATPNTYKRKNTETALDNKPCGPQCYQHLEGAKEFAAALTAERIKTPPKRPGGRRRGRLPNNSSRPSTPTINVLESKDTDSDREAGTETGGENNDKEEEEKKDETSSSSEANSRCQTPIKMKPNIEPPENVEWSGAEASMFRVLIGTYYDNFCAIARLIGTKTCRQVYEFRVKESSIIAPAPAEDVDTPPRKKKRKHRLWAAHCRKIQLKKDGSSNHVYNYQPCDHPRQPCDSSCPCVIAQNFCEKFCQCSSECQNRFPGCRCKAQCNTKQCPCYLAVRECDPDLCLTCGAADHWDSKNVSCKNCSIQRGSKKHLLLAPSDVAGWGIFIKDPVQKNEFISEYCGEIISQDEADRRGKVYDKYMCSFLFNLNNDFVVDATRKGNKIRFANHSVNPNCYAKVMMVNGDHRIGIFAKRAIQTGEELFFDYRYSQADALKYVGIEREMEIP
T1 sequence (Q15022 whole entry): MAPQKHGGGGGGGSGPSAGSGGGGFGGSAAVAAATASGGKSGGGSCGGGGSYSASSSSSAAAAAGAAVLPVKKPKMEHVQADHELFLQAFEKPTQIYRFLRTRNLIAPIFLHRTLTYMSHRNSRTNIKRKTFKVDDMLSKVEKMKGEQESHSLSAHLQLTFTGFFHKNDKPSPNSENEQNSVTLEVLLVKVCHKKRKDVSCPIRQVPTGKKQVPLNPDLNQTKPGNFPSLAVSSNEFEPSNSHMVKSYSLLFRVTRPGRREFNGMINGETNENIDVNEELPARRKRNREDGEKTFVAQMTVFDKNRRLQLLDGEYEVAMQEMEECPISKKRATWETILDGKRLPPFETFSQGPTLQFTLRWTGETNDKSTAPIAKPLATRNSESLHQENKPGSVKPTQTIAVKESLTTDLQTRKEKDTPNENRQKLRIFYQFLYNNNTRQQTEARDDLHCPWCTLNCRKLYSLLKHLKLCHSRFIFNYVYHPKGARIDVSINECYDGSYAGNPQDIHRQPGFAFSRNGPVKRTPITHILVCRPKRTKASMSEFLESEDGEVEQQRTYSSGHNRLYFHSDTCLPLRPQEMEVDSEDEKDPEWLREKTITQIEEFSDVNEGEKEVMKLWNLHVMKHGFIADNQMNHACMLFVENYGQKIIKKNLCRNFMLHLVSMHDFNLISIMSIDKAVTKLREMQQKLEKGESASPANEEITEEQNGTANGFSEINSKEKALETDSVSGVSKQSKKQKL
T1 sequence (Q09028 whole entry): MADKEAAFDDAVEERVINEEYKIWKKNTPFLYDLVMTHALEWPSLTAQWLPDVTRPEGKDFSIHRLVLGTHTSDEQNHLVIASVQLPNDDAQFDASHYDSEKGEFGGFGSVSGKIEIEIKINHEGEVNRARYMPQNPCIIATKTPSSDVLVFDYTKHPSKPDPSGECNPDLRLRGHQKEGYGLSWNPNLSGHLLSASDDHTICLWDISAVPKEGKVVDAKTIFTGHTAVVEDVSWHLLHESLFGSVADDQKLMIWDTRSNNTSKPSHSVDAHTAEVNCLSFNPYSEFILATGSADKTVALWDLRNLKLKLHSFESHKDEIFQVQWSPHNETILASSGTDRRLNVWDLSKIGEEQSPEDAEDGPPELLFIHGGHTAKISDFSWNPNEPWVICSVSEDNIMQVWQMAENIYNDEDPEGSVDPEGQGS
T1 sequence (O75530 40-441): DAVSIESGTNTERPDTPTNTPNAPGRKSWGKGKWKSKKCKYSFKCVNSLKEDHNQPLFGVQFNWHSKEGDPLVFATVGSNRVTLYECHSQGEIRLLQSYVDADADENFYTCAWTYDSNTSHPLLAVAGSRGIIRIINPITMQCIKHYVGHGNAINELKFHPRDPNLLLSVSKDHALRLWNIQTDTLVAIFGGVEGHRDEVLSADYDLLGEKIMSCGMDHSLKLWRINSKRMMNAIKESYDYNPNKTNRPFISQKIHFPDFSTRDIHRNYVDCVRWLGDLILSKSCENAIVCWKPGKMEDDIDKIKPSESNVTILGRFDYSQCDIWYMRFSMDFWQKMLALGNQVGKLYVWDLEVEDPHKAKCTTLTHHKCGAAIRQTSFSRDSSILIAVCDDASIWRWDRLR

Row | SMILES | pIC50
1 | O=C(Nc1ccc(Cl)cc1)N1CC=C(c2cnc(NCc3ccco3)n3cnnc23)CC1 [US11013745, Compound E-Y27] | 7.04
2 | O=C(Nc1ccc(Cl)cc1)N1CC=C(c2cnc(NCc3c(F)ccc4c3CCO4)n3cnnc23)CC1 [US11013745, Compound E-Y38] | 7.23
